System: H23 cells
Assay: Cell viability assay (CELLTITER-GLO), H23 cells
Assay type: cell-based
Details: Table 4; 3 days
Description: (§1) MOLM-13 cells, MV-4-11 cells, H23, and H358 cells were independently cultured in RPMI 1640 media supplemented with 10% fetal bovine serum, streptomycin and penicillin. The cells were plated in white walled 96-well plates at 4,000 cells/well. The cells were incubated in DMSO (control) or a compound for 3 days at 37° C. under 5% CO2. A CELLTITER-GLO® reagent (100 μL) was then added to each well. After a 10 min incubation with shaking, luminescence was measured using an ENVISION® multimode plate reader.
(§2) IC50 values are summarized in Table 4, where “A” represents an IC50 value of no greater than 1 μM, “B” represents an IC50 value of greater than 1 μM and no greater than 5 μM, “C” represents an IC50 value of greater than 5 μM and no greater than 10 μM, and “D” represents an IC50 value of greater than 10 μM.

C=CC(=O)N1CCN(c2ncnc3c(F)c(-c4cc(OCCOCCOCCC(=O)NCCNc5cccc6c5CN(C5CCC(=O)NC5=O)C6=O)ccc4F)c(Cl)cc23)CC1 [Compound 39, 3-(2-(2-((R)-3-(4-(4-Acryloylpiperazin-1-yl)-6-chloro-8-fluoroquinazolin-7-yl)-4-fluorophenoxy)ethoxy)ethoxy)-N-(2-((2-(2,6-dioxopiperidin-3-yl)-1-oxoisoindolin-4-yl)amino)ethyl)propanamide] was tested, and the “Inhibition of H23 cells, IC50 (class)” value was “D′”.
With C=CC(=O)N1CCN(c2nc(OCCOCCOCCOCCNc3cccc4c3C(=O)N(C3CCC(=O)NC3=O)C4=O)nc3c2CCN(c2cccc4ccccc24)C3)C[C@H]1C (stereo partly drawn) [Compound 47, 4-((2-(2-(2-(2-((4-((R)-4-Acryloyl-3-methylpiperazin-1-yl)-7-(naphthalen-1-yl)-5,6,7,8-tetrahydropyrido[3,4-d]pyrimidin-2-yl)oxy)ethoxy)ethoxy)ethoxy)ethyl)amino)-2-(2,6-dioxopiperidin-3-yl)isoindoline-1,3-dione] the “Inhibition of H23 cells, IC50 (class)” value was “B′”.

System: H358 cells
Assay: Cell viability assay (CELLTITER-GLO), H358 cells
Assay type: cell-based
Details: Table 4; 3 days
Description: as §1
In Tables 1 and 2, each compound was tested at 10 μM; and in Table 3, each compound was tested at 1 μM. In Tables 1 to 3, the cell viability values as % DMSO are reported as “A,” “B,” “C,” or “D;” where “A” represents a % viability value of less than 10%; “B” represents a % viability value of no less than 10% and less than 25%; “C” represents a % viability value of no less than 25% and less than 50%; and “D” represents a % viability value of no less than 50%. Compound A is
as §2

With C=CC(=O)N1CCN(c2ncnc3c(F)c(-c4cc(OCCOCCOCCC(=O)NCCNc5cccc6c5CN(C5CCC(=O)NC5=O)C6=O)ccc4F)c(Cl)cc23)CC1 [Compound 39, 3-(2-(2-((R)-3-(4-(4-Acryloylpiperazin-1-yl)-6-chloro-8-fluoroquinazolin-7-yl)-4-fluorophenoxy)ethoxy)ethoxy)-N-(2-((2-(2,6-dioxopiperidin-3-yl)-1-oxoisoindolin-4-yl)amino)ethyl)propanamide] the “Inhibition of H358 cells, IC50 (class)” value was “D′”.
For C=CC(=O)N1CCN(c2nc(OCCOCCOCCOCCNc3cccc4c3C(=O)N(C3CCC(=O)NC3=O)C4=O)nc3c2CCN(c2cccc4ccccc24)C3)C[C@H]1C (stereo partly drawn) [Compound 47, 4-((2-(2-(2-(2-((4-((R)-4-Acryloyl-3-methylpiperazin-1-yl)-7-(naphthalen-1-yl)-5,6,7,8-tetrahydropyrido[3,4-d]pyrimidin-2-yl)oxy)ethoxy)ethoxy)ethoxy)ethyl)amino)-2-(2,6-dioxopiperidin-3-yl)isoindoline-1,3-dione], the “Inhibition of H358 cells, IC50 (class)” value was “C′”.

System: MOLM-13 cells
Assay: Cell viability assay (CELLTITER-GLO), MOLM-13 cells
Assay type: cell-based
Details: Homo sapiens, MOLM-13, 72 h; Table 2; compound at 10 μM, 3 days; read-out: Effect on MOLM-13 cell viability (% DMSO)
Description: as §1
In Tables 1 and 2, each compound was tested at 10 μM; and in Table 3, each compound was tested at 1 μM. In Tables 1 to 3, the cell viability values as % DMSO are reported as “A,” “B,” “C,” or “D;” where “A” represents a % viability value of less than 10%; “B” represents a % viability value of no less than 10% and less than 25%; “C” represents a % viability value of no less than 25% and less than 50%; and “D” represents a % viability value of no less than 50%. Compound A is […]

C=CC(=O)N1CC(c2nc3ccc(-c4cc(O)cc5ccccc45)cc3c(=O)n2CC(=O)NCCOCCOCCOCCNc2cccc3c2C(=O)N(C2CCC(=O)NC2=O)C3=O)C1 (stereo not shown) [Compound 17, 2-(2-(1-Acryloylazetidin-3-yl)-6-(3-hydroxynaphthalen-1-yl)-4-oxoquinazolin-3(4H)-yl)-N-(2-(2-(2-(2-((2-(2,6-dioxopiperidin-3-yl)-1,3-dioxoisoindolin-4-yl)amino)ethoxy)ethoxy)ethoxy)-ethyl)acetamide] and C=CC(=O)N1CC(c2nc3ccc(-c4cc(O)cc5ccccc45)cc3c(=O)n2CCOCCNCc2ccc(OCc3scc4c3CN(C3CCC(=O)NC3=O)C4=O)cc2)C1 (stereo not shown) [Compound 21, 3-(1-((4-(((2-(2-(2-(1-Acryloylazetidin-3-yl)-6-(3-hydroxynaphthalen-1-yl)-4-oxoquinazolin-3(4H)-yl)ethoxy)ethyl)amino)methyl)phenoxy)methyl)-4-oxo-4H-thieno[3,4-c]pyrrol-5(6H)-yl)piperidine-2,6-dione] cannot be ordered by viability at 10 µM: at least 50% for the first, at least 50% for the second.

C=CC(=O)N1CC(c2nc3ccc(-c4cc(O)cc5ccccc45)cc3c(=O)n2CCNCc2ccc(OCc3scc4c3CN(C3CCC(=O)NC3=O)C4=O)cc2)C1 (stereo not shown) [Compound 18, 3-(1-((4-(((2-(2-(1-Acryloylazetidin-3-yl)-6-(3-hydroxynaphthalen-1-yl)-4-oxoquinazolin-3(4H)-yl)ethyl)amino)methyl)phenoxy)methyl)-4-oxo-4H-thieno[3,4-c]pyrrol-5(6H)-yl)piperidine-2,6-dione] and CCC(=O)N1CC(c2nc3ccc(-c4cc(O)cc5ccccc45)cc3c(=O)n2CCOCCNCc2ccc(OCc3scc4c3CN(C3CCC(=O)NC3=O)C4=O)cc2)C1 (stereo not shown) [Compound 26, 3-(1-((4-(((2-(2-(6-(3-Hydroxynaphthalen-1-yl)-4-oxo-2-(1-propionylazetidin-3-yl)quinazolin-3(4H)-yl)ethoxy)ethyl)amino)methyl)phenoxy)methyl)-4-oxo-4H-thieno[3,4-c]pyrrol-5(6H)-yl)piperidine-2,6-dione] cannot be ordered by viability at 10 µM: at least 50% for the first, at least 50% for the second.

First: C=CC(=O)N1CC(N2Cc3ccc(-c4cc(O)cc5ccccc45)cc3N(CCCCNCc3ccc(OCc4scc5c4CN(C4CCC(=O)NC4=O)C5=O)cc3)C2=O)C1 (stereo not shown) [Compound 19, 3-(1-((4-(((4-(3-(1-Acryloylazetidin-3-yl)-7-(3-hydroxynaphthalen-1-yl)-2-oxo-3,4-dihydroquinazolin-1(2H)-yl)butyl)amino)methyl)phenoxy)methyl)-4-oxo-4H-thieno[3,4-c]pyrrol-5(6H)-yl)piperidine-2,6-dione]
Second: CCC(=O)N1CC(N2Cc3ccc(-c4cc(O)cc5ccccc45)cc3N(CC(=O)NCCCCCCCN3CCC(c4cc(F)cc5c4CN(C4CCC(=O)NC4=O)C5=O)CC3)C2=O)C1 (stereo not shown) [Compound 35, N-(7-(4-(2-(2,6-Dioxopiperidin-3-yl)-6-fluoro-1-oxoisoindolin-4-yl)piperidin-1-yl)heptyl)-2-(7-(3-hydroxynaphthalen-1-yl)-2-oxo-3-(1-propionylazetidin-3-yl)-3,4-dihydroquinazolin-1(2H)-yl)acetamide]
The viability at 10 µM of the first is higher: at least 50% for the first, 10 to 25% for the second.

CCC(=O)N1CCN(c2ncnc3c(F)c(-c4c(F)cccc4OCCCCCCCNCc4ccc(OCc5scc6c5CN([C@H]5CCC(=O)NC5=O)C6=O)cc4)c(Cl)cc23)CC1 [Compound 25, (3S)-3-(1-((4-(((7-(2-(6-Chloro-8-fluoro-4-(4-propionylpiperazin-1-yl)quinazolin-7-yl)-3-fluorophenoxy)heptyl)amino)methyl)phenoxy)methyl)-4-oxo-4H-thieno[3,4-c]pyrrol-5(6H)-yl)piperidine-2,6-dione] and CCC(=O)N1CCN(c2ncnc3c(F)c(-c4c(F)cccc4OCCCCCCCNC(=O)NCc4scc5c4CN(C4CCC(=O)NC4=O)C5=O)c(Cl)cc23)CC1 (stereo not shown) [Compound 28, 1-(7-(2-(6-Chloro-8-fluoro-4-(4-propionylpiperazin-1-yl)quinazolin-7-yl)-3-fluorophenoxy)heptyl)-3-((5-(2,6-dioxopiperidin-3-yl)-4-oxo-5,6-dihydro-4H-thieno[3,4-c]pyrrol-1-yl)methyl)urea] cannot be ordered by viability at 10 µM: under 10% for the first, under 10% for the second.

First: C=CC(=O)N1CCN(c2ncnc3c(F)c(-c4c(F)cccc4OCCCCCCCNC(=O)NCc4scc5c4CN(C4CCC(=O)NC4=O)C5=O)c(Cl)cc23)CC1 (stereo not shown) [Compound 27, 1-(7-(2-(4-(4-Acryloylpiperazin-1-yl)-6-chloro-8-fluoroquinazolin-7-yl)-3-fluorophenoxy)heptyl)-3-((5-(2,6-dioxopiperidin-3-yl)-4-oxo-5,6-dihydro-4H-thieno[3,4-c]pyrrol-1-yl)methyl)urea]
Second: C=CC(=O)N1CCN(c2ncnc3c(F)c(-c4c(F)cccc4OCCCCCCCCNc4cccc5c4C(=O)N(C4CCC(=O)NC4=O)C5=O)c(Cl)cc23)CC1 (stereo not shown) [Compound 34, 4-((8-(2-(4-(4-Acryloylpiperazin-1-yl)-6-chloro-8-fluoroquinazolin-7-yl)-3-fluorophenoxy)octyl)amino)-2-(2,6-dioxopiperidin-3-yl)isoindoline-1,3-dione]
The viability at 10 µM of the first is lower: under 10% for the first, 10 to 25% for the second.

Compared with C=CC(=O)N1CCN(c2ncnc3c(F)c(-c4c(F)cccc4OCCOCCOCCC(=O)NCCNc4cccc5c4CN(C4CCC(=O)NC4=O)C5=O)c(Cl)cc23)CC1 (stereo not shown) [Compound 29, 3-(2-(2-(2-(4-(4-Acryloylpiperazin-1-yl)-6-chloro-8-fluoroquinazolin-7-yl)-3-fluorophenoxy)ethoxy)ethoxy)-N-(2-((2-(2,6-dioxopiperidin-3-yl)-1-oxoisoindolin-4-yl)amino)ethyl)propanamide], CCC(=O)N1CCN(c2ncnc3c(F)c(-c4c(F)cccc4OCCOCCOCCC(=O)NCCNc4cccc5c4CN(C4CCC(=O)NC4=O)C5=O)c(Cl)cc23)CC1 (stereo not shown) [Compound 30, 3-(2-(2-(2-(6-chloro-8-fluoro-4-(4-propionylpiperazin-1-yl)quinazolin-7-yl)-3-fluorophenoxy)ethoxy)ethoxy)-N-(2-((2-(2,6-dioxopiperidin-3-yl)-1-oxoisoindolin-4-yl)amino)ethyl)propanamide] is higher in viability at 10 µM: under 10% for the first, at least 50% for the second.

CC(=O)N1CCN(c2ncnc3c(F)c(-c4c(F)cccc4OCCOCCOCCOCCNc4cccc5c4C(=O)N(C4CCC(=O)NC4=O)C5=O)c(Cl)cc23)CC1 (stereo not shown) [Compound 31, 4-((2-(2-(2-(2-(2-(4-(4-Acetylpiperazin-1-yl)-6-chloro-8-fluoroquinazolin-7-yl)-3-fluorophenoxy)ethoxy)ethoxy)ethoxy)ethyl)amino)-2-(2,6-dioxopiperidin-3-yl)isoindoline-1,3-dione] and NC(=O)N1CCN(c2ncnc3c(F)c(-c4c(F)cccc4OCCOCCOCCOCCNc4cccc5c4C(=O)N(C4CCC(=O)NC4=O)C5=O)c(Cl)cc23)CC1 (stereo not shown) [Compound 32, 4-(6-Chloro-7-(2-(2-(2-(2-(2-((2-(2,6-dioxopiperidin-3-yl)-1,3-dioxoisoindolin-4-yl)amino)ethoxy)ethoxy)ethoxy)ethoxy)-6-fluorophenyl)-8-fluoroquinazolin-4-yl)piperazine-1-carboxamide] cannot be ordered by viability at 10 µM: at least 50% for the first, at least 50% for the second.

Compound CCC(=O)N1CCN(c2ncnc3c(F)c(-c4c(F)cccc4OCCCCCCCCNc4cccc5c4C(=O)N(C4CCC(=O)NC4=O)C5=O)c(Cl)cc23)CC1 (stereo not shown) [Compound 33, 4-((8-(2-(6-Chloro-8-fluoro-4-(4-propionylpiperazin-1-yl)quinazolin-7-yl)-3-fluorophenoxy)octyl)amino)-2-(2,6-dioxopiperidin-3-yl)isoindoline-1,3-dione] has a viability at 10 µM of 25 to 50%.

Reference: patent US12630547B2, “RAS protein degraders, pharmaceutical compositions thereof, and their therapeutic applications” (BioTheryX, Inc., priority 2019, dated 2026)
